Source: patent publication US20260337162A1, “TRYPTAMINE COMPOUNDS, COMPOSITIONS, AND METHODS OF USE” (priority 2022, published 2026)

Experiments:
in vitro = in vitro ADME, Male Sprague-Dawley rat; conditions: rat liver microsomes 0.5 mg/mL, 1 mM NADPH, test compound 1 μM, pH 7.4, 37° C.; read-out: RLM, t1/2
Description: Male Sprague-Dawley rat liver microsomes were purchased from XenoTech. The reaction mixture, minus NADPH, was prepared as described below. The test compound was added into the reaction mixture at a final concentration of 1 μM. The control compound, testosterone, was run simultaneously with the test compound in a separate reaction. The reaction mixture (without cofactor) was equilibrated in a shaking water bath at 37° C. for 5 minutes. The reaction was initiated by the addition of the cofactor, and the mixture was incubated in a shaking water bath at 37° C. Aliquots (150 μL) were withdrawn at 0, 5, 10, 20, 30, 60, and 120 minutes. Test compound and testosterone samples were immediately combined with 150 μL of ice-cold acetonitrile (ACN) containing 0.1% formic acid and internal standard to terminate the reaction. The samples were then mixed and centrifuged to precipitate proteins. All samples were assayed by LC-MS/MS using electrospray ionization. The peak area response ratio (PARR) of analyte to internal standard at each time point was compared to the PARR at time 0 to determine the percent remaining at each time point. Half-lives were calculated using GraphPad software, fitting to a single-phase exponential decay equation.

5-HT2B receptor = 5-HT2B receptor (Homo sapiens, UniProt P41595); test: Dose-response 5-HT2B functional assay (IP1 formation); type: cell-based; conditions: for EC50 / 5-HT2B functional activity (in words): IP1 formation; for 5-HT2B functional activity (in words): dose-response; for Emax: percent of control agonist response
Description: (§1) FIG. 29 is a graph showing the dose-response 5-HT2B functional assay results as a percent of control agonist response for compounds III-2 and IV-21; tested in duplicate at the indicated concentrations and the EC50 values were determined by non-linear regression analysis of the concentration-response curves generated with mean replicate values using Hill equation curve fitting.
(§2) 5-HT2 receptor-mediated Gq stimulation [phosphoinositide hydrolysis leading to the production of inositol phosphate 1 (IP1)]-canonical signaling pathways-were measured as previously described (Canal, C. E., Cordova-Sintjago, T., Liu, Y., Kim, M. S., Morgan, D., and Booth, R. G., 2013, Molecular pharmacology and ligand docking studies reveal a single amino acid difference between mouse and human serotonin 5-HT2A receptors that impacts behavioral translation of novel 4-phenyl-2-dimethylaminotetralin ligands, J Pharmacol Exp Ther 347, 705-716; Canal, C. E., Morgan, D., Felsing, D., Kondabolu, K., Rowland, N. E., Robertson, K. L., Sakhuja, R., and Booth, R. G., 2014, A Novel Aminotetralin-Type Serotonin (5-HT)(2C) Receptor —Specific Agonist and 5-HT2A Competitive Antagonist/5-HT2B Inverse Agonist with Preclinical Efficacy for Psychoses, J Pharm Exp Ther 349, 533), for example, with a homogeneous time-resolved fluorescence (HTRF) capable microplate reader (e.g., Mithras LB 940, Berthold) using commercially-available kits employing Fluorescence Resonance Energy Transfer (FRET) technology (e.g., IP-One HTRF (Cisbio) kits). Briefly, CHO-K1 or HEK293 cells expressing a single serotonergic 5-HT2 receptor subtype were incubated with test compounds and 5-HT or DOI (positive control) in stimulation buffer containing LiCl. After equilibration, the reaction was terminated with the donor and acceptor fluorescent conjugates in lysis buffer, and FRET was measured with a microplate reader (Berthold Mithras). Data were fit to non-linear curves to calculate potencies (e.g., EC50) and efficacies (e.g., EMAX), relative to positive controls (e.g., serotonin).
(§3) The results from tests of 5-HT2A functional activities of this series of compounds were also unexpected in the context of the unusual results observed from competition binding assays. […] Complete dose-response 5-HT2A and 5HT2B functional assays (measuring IP1 formation) were conducted for III-2 and IV-21 by a second, independent laboratory.

5-HT2A receptor [1] = molecular target: T1, 5-HT2A receptor (Homo sapiens, UniProt P28223); test: Dose-response 5-HT2A functional assay (IP1 formation); type: cell-based; conditions: for 5-HT2A functional activity (in words): dose-response
T1 construct: expressed in transfected cells
Description: as §1, with “27” for “29”, “5-HT2A” for “5-HT2B”, “compound II-2;” for “compounds III-2 and IV-21;”, “fitting;” for “fitting.”
as §1, with “28” for “29”, “5-HT2A” for “5-HT2B”, “fitting; and” for “fitting.”
as §2, §3

5-HT2A receptor [2] = molecular target: T1, 5-HT2A receptor; test: 5-HT2A receptor functional screening assay (efficacy relative to maximal 5-HT response); type: cell-based; conditions: for activation at 0.5 µM: 500 nM
Description: as §2

[3] = molecular target: T2, human serotonin 5-HT2A receptor (Homo sapiens, UniProt P28223); test: Radioligand ([3H]LSD) competition binding, 5-HT2A receptor; conditions: in words; up to 10 μM for partial competition
T2 construct: host or cells: HEK293 (ATCC CRL-1573)
Description: (§4) Binding affinity (Ki) and functional potency and efficacy (EC50 and EMAX) values of the compounds were measured.
Radioligand competition binding was performed as previously described (Saraf, T. S., Felsing, D. E., Armstrong, J. L., Booth, R. G., and Canal, C. E., 2021, Evaluation of lorcaserin as an anticonvulsant in juvenile Fmr1 knockout mice, Epilepsy Res 175, 106677), with minor modifications, using human cloned 5-HT2A receptors. Plasmids encoding human serotonin 5-HT2A receptor cDNA were procured from the cDNA Resource Center. Human embryonic kidney cells (HEK293, ATCC CRL-1573) were grown in a cell incubator in 100 mm dishes with antibiotic-free Dulbecco's modified Eagle's medium containing 10% fetal bovine serum. Cells were transfected at ~85% confluency with 5-15 μg cDNA using TransIT-2020 reagent (Mirus Bio, Madison, Wisconsin). After approximately 48 hours, cell membrane was collected via centrifugation. For all experiments, serotonin (5-HT) hydrochloride was used as a positive control, and mianserin hydrochloride (10 μM) was used to define non-specific binding. Each cell membrane homogenate expressing 5-HT2A receptors was incubated at room temperature in 96-well plates with [^3H] […] Following equilibration, each sample was filtered rapidly under vacuum through fiberglass filters presoaked in a buffer and washed by vacuum several times with an ice-cold buffer. Filters were soaked with scintillation fluid and counts per minute were detected using photodetectors (Microbeta Scintillation Counter). […] Data shown are the results from all experiments combined. As is known, G protein-coupled receptors, including the 5-HT2A receptor, can exist in multiple conformations, and ligands, typically agonist ligands, have unique affinities for these conformations of the receptor (Kenakin, T. Theoretical Aspects of GPCR-Ligand Complex Pharmacology, Chem. Rev. 2017, 117, 1, 4-20). […] However, for simplicity reasons, affinity of these compounds are reported herein as fitted to the single-site model. The data point for −10 samples is total specific binding (no compound present), and −4 was interpolated to complete the binding curves to 0 specific binding.

recombinant human MAO-A = recombinant human MAO-A (Homo sapiens, UniProt P21397); test: in vitro; type: in vitro ADME; conditions: role: substrate, hrMAO-A 0.02 mg/mL, test compound 1 μM, pH 7.4, 37° C.
Description: hrMAO-A and MAO control were purchased from XenoTech. The reaction mixture was prepared as described below. The test compound was added into the reaction mixture at a final concentration of 1 μM. The positive control, kynuramine (25 μM), was run simultaneously with the test compound in a separate reaction. The reaction mixture (without test compounds or kynuramine) was equilibrated in a shaking water bath at 37° C. for 5 minutes. The reaction was initiated by the addition of the test compound or kynuramine, and the mixture was incubated in a shaking water bath at 37° C. Aliquots (150 μL) of the test compound reaction mixture were withdrawn at 0, 5, 10, 20, 30,60, and 120 minutes. Aliquots (150 μL) of the positive control reaction mixture were withdrawn at 0 and 30 minutes. Test compound and kynuramine samples were immediately combined with 150 AL of ice-cold 100% acetonitrile containing 0.1% formic acid and internal standard (0.2 μM metoprolol) to terminate the reaction. The samples were then mixed and centrifuged to precipitate proteins. All samples were assayed by LC-MS/MS. The peak area response ratio (PARR) of analyte to internal standard at each time point was compared to the PARR at time 0 to determine the percent remaining at each time point. Half-lives were calculated using GraphPad software, fitting to a single-phase exponential decay equation.

5-HT2A receptor [4] = test: Head-twitch response (HTR) and behavioral observation in mice; type: in vivo, adult, male C57BL/6J mice; conditions: 10 mg/kg PO, mice
Description: The HTR assay was performed in adult, male C57BL/6J mice, procured from the Jackson Laboratory (Bar Harbor, Maine), as previously described (Canal, C. E., and Morgan, D., 2012, Head-twitch response in rodents induced by the hallucinogen 2,5-dimethoxy-4-iodoamphetamine: a comprehensive history, a re-evaluation of mechanisms, and its utility as a model, Drug Test Anal 4, 556-576; Saraf, T. S., Felsing, D. E., Armstrong, J. L., Booth, R. G., and Canal, C. E., 2021, Evaluation of lorcaserin as an anticonvulsant in juvenile Fmr1 knockout mice, Epilepsy Res 175, 106677). Mice were housed in standard laboratory cages with ad libitum access to food and water, and were acclimated to the vivarium for at least one week prior to testing in a procedure room. On the day of testing, mice were acclimated to the procedure room in their home cages for ≥60 min before administration of test compounds. Test articles were administered at 10 mg/kg by oral gavage and mice were placed immediately thereafter in a clear, polycarbonate box (46×20×20 cm), and HTRs were counted for 30 consecutive minutes, using hand-held tally counters, by two trained observers who were blind to treatment.

[5] = humans (TIHKAL; Erowid); cited from earlier work
5-HT2A receptor [6] = molecular target: T1, 5-HT2A receptor; test: Competition binding assay with [125I]DOI, 5-HT2A receptor; conditions: [125I]DOI radioligand; read-out: 5-HT2A affinity
Description: as §4

T1 sequence (P28223 whole entry): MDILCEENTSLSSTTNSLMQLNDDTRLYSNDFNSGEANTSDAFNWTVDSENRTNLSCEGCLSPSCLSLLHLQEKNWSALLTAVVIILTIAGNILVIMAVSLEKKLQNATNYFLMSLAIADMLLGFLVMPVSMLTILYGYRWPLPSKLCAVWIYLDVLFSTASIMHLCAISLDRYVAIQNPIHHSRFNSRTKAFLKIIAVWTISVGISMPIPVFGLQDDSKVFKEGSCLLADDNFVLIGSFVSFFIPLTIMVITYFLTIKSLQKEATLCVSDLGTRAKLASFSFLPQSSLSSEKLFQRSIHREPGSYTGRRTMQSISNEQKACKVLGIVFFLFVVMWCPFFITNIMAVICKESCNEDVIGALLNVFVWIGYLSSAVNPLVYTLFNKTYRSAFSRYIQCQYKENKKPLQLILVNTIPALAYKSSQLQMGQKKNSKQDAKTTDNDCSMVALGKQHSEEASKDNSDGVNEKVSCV
5-HT2B receptor, sequence (P41595 whole entry): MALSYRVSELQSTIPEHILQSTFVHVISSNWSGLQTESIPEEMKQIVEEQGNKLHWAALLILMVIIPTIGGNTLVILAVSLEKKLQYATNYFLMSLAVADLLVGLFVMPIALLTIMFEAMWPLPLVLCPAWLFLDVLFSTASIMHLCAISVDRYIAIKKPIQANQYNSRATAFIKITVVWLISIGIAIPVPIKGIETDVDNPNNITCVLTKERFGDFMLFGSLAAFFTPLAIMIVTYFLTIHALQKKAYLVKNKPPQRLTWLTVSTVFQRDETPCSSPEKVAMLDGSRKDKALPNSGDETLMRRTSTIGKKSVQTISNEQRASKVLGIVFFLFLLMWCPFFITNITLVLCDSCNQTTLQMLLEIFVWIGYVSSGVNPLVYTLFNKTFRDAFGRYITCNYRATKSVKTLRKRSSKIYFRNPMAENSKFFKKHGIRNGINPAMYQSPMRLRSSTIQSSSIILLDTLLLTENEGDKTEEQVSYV
T2 sequence (P28223 whole entry): as the sequence (P28223 whole entry) above
recombinant human MAO-A, sequence (P21397 whole entry): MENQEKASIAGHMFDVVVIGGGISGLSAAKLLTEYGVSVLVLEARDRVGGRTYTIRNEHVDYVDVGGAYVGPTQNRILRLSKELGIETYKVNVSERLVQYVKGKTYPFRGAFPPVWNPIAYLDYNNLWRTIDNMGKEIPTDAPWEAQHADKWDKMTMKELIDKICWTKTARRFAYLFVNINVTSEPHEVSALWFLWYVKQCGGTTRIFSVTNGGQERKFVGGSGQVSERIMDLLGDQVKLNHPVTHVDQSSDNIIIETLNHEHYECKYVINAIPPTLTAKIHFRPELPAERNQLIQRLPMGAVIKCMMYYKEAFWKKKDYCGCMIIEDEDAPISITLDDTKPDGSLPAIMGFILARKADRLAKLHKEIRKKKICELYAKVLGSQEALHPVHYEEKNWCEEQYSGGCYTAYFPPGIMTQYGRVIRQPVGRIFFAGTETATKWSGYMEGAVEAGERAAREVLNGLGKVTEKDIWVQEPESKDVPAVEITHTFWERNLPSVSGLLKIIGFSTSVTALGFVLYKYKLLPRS

CN(CCc1c[nH]c2cccc(O)c12)CC(F)(F)F [III-13, 3-(2-(methyl (2,2,2-trifluoroethyl)amino)ethyl)-1H-indol-4-ol]
half-life at 1 µM (in vitro): 4.5 min

Oc1cccc2[nH]cc(CCN(CCC(F)F)CCC(F)F)c12 [III-2, 3-(2-(bis(3,3-difluoropropyl)amino)ethyl)-1H-indol-4-ol]
EC50 (5-HT2B receptor): 96 nM
5-HT2B functional activity (in words) (5-HT2B receptor): partial agonist
Emax (5-HT2B receptor): 65%
EC50 (5-HT2A receptor [1]; IP1 formation): 383 nM
5-HT2A functional activity (in words) (5-HT2A receptor [1]; IP1 formation): low potency, full agonist
activation at 0.5 µM (5-HT2A receptor [2]): 58.3%
activation at 50 µM (5-HT2A receptor [2]): > 50%

CN(CCc1c[nH]c2ccccc12)CC(F)(F)F [II-19, N-(2-(1H-indol-3-yl)ethyl)-2,2,2-trifluoro-N-methylethan-1-amine]
half-life at 1 µM (in vitro): 3.95 min
competition for [3H]LSD-labeled 5-HT2A receptors [3]: only partial competition

COc1ccc2[nH]cc(CCN(C)CC(F)(F)F)c2c1 [IV-40, 2,2,2-trifluoro-N-(2-(5-methoxy-1H-indol-3-yl)ethyl)-N-methylethan-1-amine]
half-life at 1 µM (in vitro): 4.55 min

CN(C)CCc1c[nH]c2ccc(OC(F)(F)F)cc12 [IV-3, N,N-dimethyl-2-(5-(trifluoromethoxy)-1H-indol-3-yl) ethan-1-amine]
half-life at 1 µM (in vitro): 13.1 min

FC(F)(F)CNCCc1c[nH]c2ccccc12 [II-20, N-(2-(1H-indol-3-yl)ethyl)-2,2,2-trifluoroethan-1-amine]
half-life at 1 µM (in vitro): 7.63 min
competition for [3H]LSD-labeled 5-HT2A receptors [3]: only partial competition
half-life at 1 µM (recombinant human MAO-A): > 120 min

CCN(CC)CCc1c[nH]c2ccccc12 [DET, N,N-diethyltryptamine, reference compound]
elicitation of HTR (in words) (5-HT2A receptor [4]): inactive at eliciting the HTR
qualitative behavioral changes (5-HT2A receptor [4]): accelerated breathing, hyperlocomotion, hiccup responses, and chewing movements of mouth
oral activity in humans [5]: active orally in humans

CN(CCc1c[nH]c2ccccc12)[S+]([O-])C(F)(F)F (centres unmarked) [II-15, N-(2-(1H-indol-3-yl)ethyl)-1,1,1-trifluoro-N-methylmethanesulfinamide]
Ki (5-HT2A receptor [6]): > 3000 nM
activation at 0.5 µM (5-HT2A receptor [2]): -24.1%
activation at 50 µM (5-HT2A receptor [2]): -36.9%
5-HT2A functional activity (in words) (5-HT2A receptor [2]; in vitro screening, II-15: both 500 nM and 50 μM): inverse agonist efficacy

COc1ccc2[nH]cc(CCN(C)CCC(F)(F)F)c2c1 [IV-21, 3,3,3-trifluoro-N-(2-(5-methoxy-1H-indol-3-yl)ethyl)-N-methylpropan-1-amine]
EC50 (5-HT2B receptor): 394 nM
5-HT2B functional activity (in words) (5-HT2B receptor): partial agonist
Emax (5-HT2B receptor): 62%
EC50 (5-HT2A receptor [1]; IP1 formation): > 3000 nM
EC50 (5-HT2A receptor [1]; dose-response curve had not plateaued at 3 μM): > 3000 nM
5-HT2A functional activity (in words) (5-HT2A receptor [1]; IP1 formation): low potency, EC50>3 μM, agonist
activation at 0.5 µM (5-HT2A receptor [2]): 29.5%
